In patent US20230310388A1, “Methods and Compositions for Treating Fungal Infections” (Neoculi Pty Ltd, priority 2020, published 2023):
In brackets after ≈: the same amount, converted by molar mass. Read-outs that look alike come from different tables or passages of the source.

Key:
Type in all cases: cell-based
Malassezia pachydermatis = experiment: MIC, mSAB broth microdilution (Example 1)
Excerpt: There is no recommended Clinical & Laboratory Standards Institute (CLSI) standard for M. pachydermatis. In the literature there are a number of papers which have developed Minimum Inhibitory Concentration (MIC) methodology for Malassezia species isolated from both humans and animals (ie both lipophilic and non-lipophilic species). In all papers, the methodology has been altered from the original CLSI protocols in order to overcome four main problem areas involved in testing this yeast. • 1) Finding a suitable growth medium for Malassezia, especially the lipophilic species. […] When testing the azole group of anti-fungal agents, there is also the well known trailing end point problem with MIC determination. Trailing occurs when the turbidity continually decreases as the drug concentration increases but the suspension fails to become optically clear (partial inhibition of growth over an extended range of antifungal concentrations). The following method was originally developed by Eichenberg et al. (2003) (mSAB broth microdilution method). The mSAB method was devised to follow as closely as possible the CLSI guidelines whilst still allowing for the distinct biochemical and growth requirements of M. pachydermatis. Sabouraud dextrose broth with 1% Tween 80 was chosen as the assay medium as it allowed for excellent growth of the organism. Higher inoculum concentrations (1-4×10^6 CFU/ml) and increased time of incubation (48 to 72 hours) were used to enable sufficient growth of the test strains.

Cryptococcus neoformans [1] = experiment: CLSI broth microdilution MIC (Example 6); conditions: for MIC: Cryptococcus neoformans, read-out: MIC
Method in brief: (§1)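 CLSI broth microdilution in RPMI 1640, compounds serially double-diluted, inoculum about 2×10^3 cells/mL. Incubation at 35° C for 24-48 hours. MICs determined per isolate in duplicate, with a third repeat if values differed.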

Candida albicans [2] = experiment: CLSI broth microdilution MIC (Example 6); conditions: read-out: MIC
Method in brief: as §1

Candida albicans [3] = experiment: CLSI broth microdilution MIC (Example 3); conditions: Candida albicans, read-out: MIC
Description: (§2) Antifungal minimum inhibitory concentration (MIC) testing was undertaken as recommended by the CLSI. Briefly, antifungal susceptibility tests were performed for amphotericin B, robenidine (NCL812) and 5 robenidine analogs (NCL062, NCL195, NCL219, NCL259, NCL265) by standard broth microdilution method (CLSI) in RPMI 1640. Various concentrations (ranging from high to low) of the selected compounds were prepared in RPMI 1640 medium by double dilution in 96-well microtitre plates. Each well contained an inoculum of approximately 2×10^3 cells/mL. The wells without addition of drugs served as negative (no inoculum) and positive (inoculum only) growth controls. Microtitre plates were incubated at 35° C. for 24-48 hours. […] Antifungal MICs were determined for each isolate in duplicate; if the values obtained were different, the MIC test was repeated a third time. Antifungal susceptibility tests were performed for amphotericin B and NCL analogs by standard broth microdilution method (CLSI). Briefly, various concentrations (ranging from high to low) of the selected compounds were prepared in RPMI 1640 medium by double dilution in the 96-well plates. Each well contained an inoculum of approximately 2×10^3 cells/mL. The wells without addition of drugs served as a negative control. Micro plates were incubated at 35° C. for 48 hour and read spectrophotometrically at 600 nm, using a microplate reader (Multiskan-EX; Thermo Elect. Corp., USA).

Candida parapsilosis = experiment: CLSI broth microdilution MIC (Example 3); conditions: Candida parapsilosis ATCC 22019
Description: as §2

Cryptococcus neoformans [4] = experiment: CLSI broth microdilution MIC (Example 5)
Method in brief: (§3)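 Broth microdilution per CLSI in RPMI 1640 with twofold compound dilutions, inoculum about 2×10^3 cells/mL. Plates incubated at 35° C for 24-48 hours. MIC determined per isolate in duplicate, with a third repeat when the two values differed.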

Candida albicans [5] = experiment: CLSI broth microdilution MIC (Example 5); conditions: for MIC: Candida albicans, read-out: MIC
Method in brief: as §3

[6] = ATCC90028, Candida albicans ATCC 90028

MIC (Malassezia pachydermatis; Malassezia isolate M-036): 2 µg/mL (≈ 5.98 µM) | MIC (Malassezia pachydermatis; Malassezia isolate M-066): 2 µg/mL (≈ 5.98 µM) | MIC (Malassezia pachydermatis; Malassezia pachydermatis, Malassezia isolate M1-017, read-out: MIC): 2 µg/mL (≈ 5.98 µM) | MIC (Malassezia pachydermatis; Malassezia pachydermatis, Malassezia isolate M-018, read-out: MIC): 2 µg/mL (≈ 5.98 µM) | MIC (Malassezia pachydermatis; Malassezia pachydermatis, Malassezia isolate M-020, read-out: MIC): 2 µg/mL (≈ 5.98 µM) | MIC (Malassezia pachydermatis; Malassezia pachydermatis, Malassezia isolate M-036, read-out: MIC): 1 µg/mL (≈ 2.99 µM) | MIC (Malassezia pachydermatis; Malassezia pachydermatis, Malassezia isolate M-037, read-out: MIC): 2 µg/mL (≈ 5.98 µM) | MIC (Malassezia pachydermatis; Malassezia pachydermatis, Malassezia isolate M-038, read-out: MIC): 1 µg/mL (≈ 2.99 µM) | MIC (Malassezia pachydermatis; Malassezia pachydermatis, Malassezia isolate M-040, read-out: MIC): 2 µg/mL (≈ 5.98 µM) | MIC (Malassezia pachydermatis; Malassezia pachydermatis, Malassezia isolate M-052, read-out: MIC): 1 µg/mL (≈ 2.99 µM) | MIC (Malassezia pachydermatis; Malassezia pachydermatis, Malassezia isolate M-055, read-out: MIC): 1 µg/mL (≈ 2.99 µM) | MIC (Malassezia pachydermatis; Malassezia pachydermatis, Malassezia isolate M-060, read-out: MIC): 1 µg/mL (≈ 2.99 µM) | MIC (Malassezia pachydermatis; Malassezia pachydermatis, Malassezia isolate M-066, read-out: MIC): 1 µg/mL (≈ 2.99 µM) | MIC (Malassezia pachydermatis; Malassezia pachydermatis, Malassezia isolate M-067, read-out: MIC): 1 µg/mL (≈ 2.99 µM) | MIC (Malassezia pachydermatis; Malassezia pachydermatis, Malassezia isolate M-069, read-out: MIC): 2 µg/mL (≈ 5.98 µM) | MIC (Cryptococcus neoformans [1]; Cryptococcus neoformans SA1): 2 µg/mL (≈ 5.98 µM) | MIC (Cryptococcus neoformans [1]; Cryptococcus neoformans SA2): 2 µg/mL (≈ 5.98 µM) | MIC (Cryptococcus neoformans [1]; human clinical isolate C. neoformans serotype A/D hybrid): 16 µg/mL (≈ 47.9 µM) | MIC (Cryptococcus neoformans [1]; human clinical isolate C. neoformans var grubii 16-90050434): 32 µg/mL (≈ 95.7 µM) | MIC (Cryptococcus neoformans [1]; human clinical isolate C. neoformans var grubii 17-90028233): 32 µg/mL (≈ 95.7 µM) | MIC (Cryptococcus neoformans [1]; human clinical isolate C. neoformans var grubii 17-93996464): 16 µg/mL (≈ 47.9 µM) | MIC (Candida albicans [2]; [6]): 2 µg/mL (≈ 5.98 µM) | MIC (Candida albicans [2]; Candida albicans, C. albicans SA3): 2 µg/mL (≈ 5.98 µM) | MIC (Candida albicans [3]; ATCC90028, Candida albicans ATCC 90028, 1st): 0.25 µg/mL (≈ 0.748 µM) | MIC (Candida albicans [3]; ATCC90028, Candida albicans ATCC 90028, 2nd): 0.5 µg/mL (≈ 1.5 µM) | MIC (Candida albicans [3]; two Candida albicans and one Candida parapsilosis isolates, summary range): 0.5 to 8 µg/mL (≈ 1.5 to 23.9 µM) | MIC (Candida albicans [3]; 1st): 0.5 µg/mL (≈ 1.5 µM) | MIC (Candida albicans [3]; 2nd): 1 µg/mL (≈ 2.99 µM) | MIC (Candida parapsilosis; 2nd): 0.5 µg/mL (≈ 1.5 µM) | MIC (Candida parapsilosis; Lodderomyces parapsilosis, ATCC22019, 1st, read-out: MIC): 0.5 µg/mL (≈ 1.5 µM) | MIC (Cryptococcus neoformans [4]; Cryptococcus neoformans SA1, read-out: MIC): 2 µg/mL (≈ 5.98 µM) | MIC (Cryptococcus neoformans [4]; Cryptococcus neoformans SA2): 2 µg/mL (≈ 5.98 µM) | MIC (Candida albicans [5]; [6]): 2 µg/mL (≈ 5.98 µM) | MIC (Candida albicans [5]; clinical isolate C. albicans 12-93301752 Azole Resistant): 2 µg/mL (≈ 5.98 µM) | MIC (Candida albicans [5]; clinical isolate C. albicans 14-90045999 Azole Resistant): 2 µg/mL (≈ 5.98 µM) | MIC (Candida albicans [5]; clinical isolate C. albicans 15-45171061): 1 µg/mL (≈ 2.99 µM) | MIC (Candida albicans [5]; clinical isolate C. albicans 15-91329871): 2 µg/mL (≈ 5.98 µM) | MIC (Candida albicans [5]; clinical isolate C. albicans 16-24136919 Azole Resistant): 2 µg/mL (≈ 5.98 µM) | MIC (Candida albicans [5]; clinical isolate C. albicans 16-46177400): 4 µg/mL (≈ 12 µM) | MIC (Candida albicans [5]; clinical isolate C. albicans 16-90050810): 2 µg/mL (≈ 5.98 µM) | MIC (Candida albicans [5]; clinical isolate C. albicans 16-90054237): 2 µg/mL (≈ 5.98 µM) | MIC (Candida albicans [5]; clinical isolate C. albicans 18-144-00196): 0.5 µg/mL (≈ 1.5 µM) | MIC (Candida albicans [5]; clinical isolate C. albicans 18-148-08188 Azole Resistant): 1 µg/mL (≈ 2.99 µM) | MIC (Candida albicans [5]; C. albicans SA3): 2 µg/mL (≈ 5.98 µM)
Compound: N=C(N/N=C/c1ccc(Cl)cc1)N/N=C/c1ccc(Cl)cc1 [NCL812, robenidine, reference compound]
activity against all 13 isolates of Malassezia pachydermatis (Malassezia pachydermatis; summary in words): highly active | activity against all isolates (Cryptococcus neoformans [1]; Example 6 isolates, summary in words): active | activity against one or more isolates of Candida albicans and Cryptococcus neoformans (Cryptococcus neoformans [1]; summary in words): highly active | activity against all tested isolates of Cryptococcus neoformans and Candida albicans (Candida albicans [5]; summary in words): active | activity against one or more isolates of Cryptococcus neoformans and Candida albicans (Candida albicans [5]; summary in words): highly active
